{
  "source": "patent US20070049559A1",
  "about": "“Preparations comprising arylazine substituted with a carbonylic moiety to increase the activity of Gelatinase A in ocular cells” (priority 2005, published 2007)",
  "test_system": "MT-MMP",
  "experiment": "Thiopeptolide assay of cell-associated gelatinase activity ascribed to MT-MMP in TM cells",
  "type": "cell-based, Rhesus monkey",
  "settings": "benzathine (as diacetate salt) combined with an equal weight of test compound in the incubation medium",
  "method": "Unless specifically noted, all molecules tested were prepared as stock solutions in dimethyl sulfoxide (DMSO) with a final concentration of 10 mg/ml. The stocks were stored in a dessicator at −20 degrees Celsius. In testing the molecules, the molecules were diluted to final concentrations of 0.3 ug/ml and 15 ug/ml in a simplified culture medium based on Ames' medium, called Concanavalin A (Con A) conditioning medium (CACM). The monkey TM cells were incubated with the test molecules for 48 hours.\nControl medium of CACM plus DMSO and a positive control with 5 ug/ml Con A plus DMSO were run in parallel. […]\nAt the end of the incubation period, by means of a spectrophoto-metric plate reader, the optical density (OD) at 410 nm was determined for each well after automatic subtraction of a blank value for a well containing reaction mixture but without cells. The average OD at the two-hour end point for each test molecule at all concentrations in triplicate was calculated. […] As an alternate to the end point OD reading, one may use the mean rate of appearance of the reaction product (mean V), calculated from the best linear fit of the data to absorbance vs. time. […]",
  "data": [
    {"smiles": "O=C(O)c1cc(O)c2ccccc2n1", "note": "[Kynurenic Acid, kynurenic acid]", "values": [
      {"measurement": "MT-MMP activity in combination with benzathine", "result": "evince MT-MMP activity"}
    ]}
  ]
}
